Results taken from ChEMBL document CHEMBL6109152, “Harnessing the SPOP E3 Ubiquitin Ligase via a Bridged Proteolysis Targeting Chimera (PROTAC) Strategy for Targeted Protein Degradation” (J Med Chem, 2025).
The source made the active and inactive calls. The calls are words filed in the database; no cut-off is given here.

Legend:
[1] = biological target: T1, Speckle-type POZ protein-Bromodomain-containing protein 4 (Homo sapiens, UniProt O60885+O43791); assay: PROTAC activity at SPOP/BRD4-S in human HT-29 cells assessed as induction of BRD4 short isoform degradation incubated for 24 hrs by Western blotting analysis; format: cell-based
[2] = biological target: T1, Speckle-type POZ protein-Bromodomain-containing protein 4; assay: PROTAC activity at SPOP/BRD4-S in human HT-29 cells assessed as induction of BRD4 short isoform degradation by measuring maximal efficacy at 0.156 to 10 uM incubated for 24 hrs by Western blotting analysis relative to control; format: cell-based; details: dose 0.156-10 µM
[3] = biological target: T1, Speckle-type POZ protein-Bromodomain-containing protein 4; assay: PROTAC activity at SPOP/BRD4-L in human HT-29 cells assessed as induction of BRD4 long isoform degradation at 10 uM incubated for 24 hrs by Western blotting analysis relative to control; format: cell-based
[4] = biological target: T1, Speckle-type POZ protein-Bromodomain-containing protein 4; assay: PROTAC activity at SPOP/BRD4-L in human HT-29 cells assessed as induction of BRD4 long isoform degradation by measuring fold change at 2.5 uM incubated for 24 hrs by Western blotting analysis (reference value: 1.00); format: cell-based
[5] = biological target: T1, Speckle-type POZ protein-Bromodomain-containing protein 4; assay: PROTAC activity at SPOP/BRD4-S in human HT-29 cells assessed as induction of BRD4 short isoform degradation by measuring fold change at 1.25 uM incubated for 24 hrs by Western blotting analysis (reference value: 1.00); format: cell-based
[6] = biological target: T1, Speckle-type POZ protein-Bromodomain-containing protein 4; assay: PROTAC activity at SPOP/BRD4-S in human HT-29 cells assessed as induction of BRD4 short isoform degradation by measuring fold change at 5 uM incubated for 24 hrs by Western blotting analysis (reference value: 1.00); format: cell-based
[7] = biological target: T2, Speckle-type POZ protein-Bromodomain-containing protein 3 (Homo sapiens) (UniProt Q15059+O43791); assay: PROTAC activity at SPOP/BRD3 in human HT-29 cells assessed as induction of BRD3 degradation by measuring fold change at 0.625 uM incubated for 24 hrs by Western blot analysis (reference value: 1.00); format: cell-based
[8] = biological target: T2, Speckle-type POZ protein-Bromodomain-containing protein 3 (Homo sapiens); assay: PROTAC activity at SPOP/BRD3 in human HT-29 cells assessed as induction of BRD3 degradation by measuring fold change at 2.5 uM incubated for 24 hrs by Western blot analysis (reference value: 1.00); format: cell-based
[9] = biological target: T3, Speckle-type POZ protein-Bromodomain-containing protein 2 (Homo sapiens) (UniProt P25440+O43791); assay: PROTAC activity at SPOP/BRD2 in human HT-29 cells assessed as induction of BRD2 degradation by measuring fold change at 0.625 uM incubated for 24 hrs by Western blot analysis (reference value: 1.00); format: cell-based
[10] = biological target: T3, Speckle-type POZ protein-Bromodomain-containing protein 2 (Homo sapiens); assay: PROTAC activity at SPOP/BRD2 in human HT-29 cells assessed as induction of BRD2 degradation by measuring fold change at 1.25 uM incubated for 24 hrs by Western blot analysis (reference value: 1.00); format: cell-based
[11] = biological target: T4, Bromodomain-containing protein 4 (Homo sapiens, UniProt O60885); assay: Inhibition of BRD4 in human HT-29 cells assessed as decrease in c-MYC protein level by measuring fold change at 0.625 uM incubated for 24 hrs by Western blot analysis (reference value: 1.00); format: cell-based
[12] = biological target: T4, Bromodomain-containing protein 4; assay: Inhibition of BRD4 in human HT-29 cells assessed as decrease in c-MYC protein level by measuring fold change at 2.5 uM incubated for 24 hrs by Western blot analysis (reference value: 1.00); format: cell-based
[13] = biological target: T4, Bromodomain-containing protein 4; assay: Inhibition of BRD4 in human HT-29 cells assessed as decrease in c-MYC protein level by measuring fold change at 5 uM incubated for 24 hrs by Western blot analysis (reference value: 1.00); format: cell-based
[14] = biological target: T1, Speckle-type POZ protein-Bromodomain-containing protein 4; assay: PROTAC activity at SPOP/BRD4-S in human HT-29 cells assessed as induction of BRD4 short isoform degradation at 5 uM measured after 16 to 72 hrs by Western blotting analysis; format: cell-based; details: time 16-72 hrs
[15] = biological target: T1, Speckle-type POZ protein-Bromodomain-containing protein 4; assay: PROTAC activity at SPOP/BRD4-L in human HT-29 cells assessed as induction of BRD4 long isoform degradation at 5 uM measured after >=48 hrs by Western blotting analysis; format: cell-based
[16] = biological target: T2, Speckle-type POZ protein-Bromodomain-containing protein 3 (Homo sapiens); assay: PROTAC activity at SPOP/BRD3 in human HT-29 cells assessed as induction of BRD3 degradation at 5 uM measured after >=48 hrs by Western blot analysis; format: cell-based
[17] = biological target: T4, Bromodomain-containing protein 4; assay: Inhibition of BRD4 in human HT-29 cells assessed as decrease in c-MYC protein level at 5 uM measured after 2 hrs by Western blot analysis; format: cell-based
[18] = biological target: T1, Speckle-type POZ protein-Bromodomain-containing protein 4; assay: PROTAC activity at SPOP/BRD4-S in human HT-29 cells assessed as induction of BRD4 short isoform degradation at 5 uM by Western blotting analysis; format: cell-based; details: time 2-72 hrs
HT-29 [19] = assay: Effect on BRD4 short isoform mRNA level in human HT-29 cells at 1 to 10 uM incubated for 24 hrs by RT-qPCR analysis; format: functional, cell-based; details: dose 1-10 µM
HT-29 [20] = assay: Effect on BRD3 mRNA level in human HT-29 cells at 1 to 10 uM incubated for 24 hrs by RT-qPCR analysis; format: functional, cell-based; details: dose 1-10 µM
HT-29 [21] = assay: Effect on BRD2 mRNA level in human HT-29 cells at 1 to 10 uM incubated for 24 hrs by RT-qPCR analysis; format: functional, cell-based; details: dose 1-10 µM
[22] = biological target: T2, Speckle-type POZ protein-Bromodomain-containing protein 3 (Homo sapiens); assay: PROTAC activity at SPOP/BRD3 in human MDA-MB-231 cells assessed as induction of BRD3 degradation at 0.1 to 5 uM incubated for 24 hrs by Western blot analysis; format: cell-based; details: dose 0.1-5 µM
[23] = biological target: T1, Speckle-type POZ protein-Bromodomain-containing protein 4; assay: PROTAC activity at SPOP/BRD4-S in human HT-29 cells assessed as induction of BRD4 short isoform degradation at 5 uM preincubated with MS1262 for 2 hrs followed by compound addition and measured after 24 hrs by Western blot analysis; format: cell-based
[24] = biological target: T1, Speckle-type POZ protein-Bromodomain-containing protein 4; assay: PROTAC activity at SPOP/BRD4-S in human HT-29 cells assessed as induction of BRD4 short isoform degradation at 5 uM preincubated with JQ1 for 2 hrs followed by compound addition and measured after 24 hrs by Western blot analysis; format: cell-based
[25] = biological target: T1, Speckle-type POZ protein-Bromodomain-containing protein 4; assay: PROTAC activity at SPOP/BRD4-S in human HT-29 cells assessed as induction of BRD4 short isoform degradation at 5 uM preincubated with MLN4924 for 2 hrs followed by compound addition and measured after 24 hrs by Western blot analysis; format: cell-based
HT-29 [26] = assay: Antiproliferative activity against human HT-29 cells assessed as cell growth inhibition incubated for 3 days by WST-8 reagent based assay; format: functional

T2 sequence (O43791 whole entry, looked up): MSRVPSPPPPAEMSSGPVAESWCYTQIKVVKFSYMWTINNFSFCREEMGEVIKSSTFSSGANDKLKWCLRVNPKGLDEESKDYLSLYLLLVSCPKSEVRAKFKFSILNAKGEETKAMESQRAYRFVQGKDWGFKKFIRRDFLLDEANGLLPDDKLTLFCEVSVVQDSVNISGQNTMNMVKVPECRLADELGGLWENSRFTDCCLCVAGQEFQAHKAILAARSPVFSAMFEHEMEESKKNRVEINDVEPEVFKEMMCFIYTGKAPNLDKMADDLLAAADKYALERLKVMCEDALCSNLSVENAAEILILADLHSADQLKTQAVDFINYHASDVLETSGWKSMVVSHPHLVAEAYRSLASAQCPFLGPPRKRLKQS
T2 sequence (Q15059 whole entry, looked up): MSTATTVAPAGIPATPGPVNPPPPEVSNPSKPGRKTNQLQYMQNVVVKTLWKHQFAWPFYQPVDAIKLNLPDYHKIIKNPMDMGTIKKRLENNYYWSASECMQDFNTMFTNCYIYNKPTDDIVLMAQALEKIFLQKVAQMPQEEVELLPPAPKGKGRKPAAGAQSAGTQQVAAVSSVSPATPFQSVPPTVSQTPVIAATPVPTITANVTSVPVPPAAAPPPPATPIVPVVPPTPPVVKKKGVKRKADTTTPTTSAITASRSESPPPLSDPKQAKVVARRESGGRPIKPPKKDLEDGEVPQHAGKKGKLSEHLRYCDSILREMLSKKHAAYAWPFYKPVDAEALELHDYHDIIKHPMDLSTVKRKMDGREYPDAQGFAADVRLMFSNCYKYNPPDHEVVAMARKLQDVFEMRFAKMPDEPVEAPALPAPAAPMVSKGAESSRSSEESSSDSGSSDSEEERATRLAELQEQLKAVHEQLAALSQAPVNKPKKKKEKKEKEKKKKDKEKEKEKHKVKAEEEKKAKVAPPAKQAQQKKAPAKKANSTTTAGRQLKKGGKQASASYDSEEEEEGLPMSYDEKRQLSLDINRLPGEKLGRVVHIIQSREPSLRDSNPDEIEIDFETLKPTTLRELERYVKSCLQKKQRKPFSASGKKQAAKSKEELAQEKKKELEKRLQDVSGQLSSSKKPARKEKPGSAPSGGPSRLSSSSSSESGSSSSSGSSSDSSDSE
T1 sequence (O43791 whole entry, looked up, other chains not shown, canonical isoform): as the sequence (O43791 whole entry, looked up) above
T3 sequence (O43791 whole entry, looked up): as above
T3 sequence (P25440 whole entry, looked up): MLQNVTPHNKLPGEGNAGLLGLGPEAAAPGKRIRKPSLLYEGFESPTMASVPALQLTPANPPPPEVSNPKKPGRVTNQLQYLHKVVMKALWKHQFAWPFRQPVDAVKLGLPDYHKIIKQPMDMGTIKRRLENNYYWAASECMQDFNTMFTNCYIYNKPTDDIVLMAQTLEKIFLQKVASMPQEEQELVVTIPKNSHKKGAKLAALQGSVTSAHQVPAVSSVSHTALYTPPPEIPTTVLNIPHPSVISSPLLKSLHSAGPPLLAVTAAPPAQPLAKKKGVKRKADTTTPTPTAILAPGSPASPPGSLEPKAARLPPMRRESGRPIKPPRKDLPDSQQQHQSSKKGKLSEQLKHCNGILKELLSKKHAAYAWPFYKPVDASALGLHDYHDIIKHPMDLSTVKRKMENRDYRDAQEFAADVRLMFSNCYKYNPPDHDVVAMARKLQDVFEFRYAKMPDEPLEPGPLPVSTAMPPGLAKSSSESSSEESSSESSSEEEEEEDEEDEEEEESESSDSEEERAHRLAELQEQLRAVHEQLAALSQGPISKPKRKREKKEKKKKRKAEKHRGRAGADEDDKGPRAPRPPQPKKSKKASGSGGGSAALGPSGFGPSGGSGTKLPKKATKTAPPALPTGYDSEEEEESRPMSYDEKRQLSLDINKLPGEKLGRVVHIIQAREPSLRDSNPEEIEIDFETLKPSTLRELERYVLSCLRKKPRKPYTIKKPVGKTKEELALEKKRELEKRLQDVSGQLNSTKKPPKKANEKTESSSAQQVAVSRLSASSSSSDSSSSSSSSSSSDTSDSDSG

In the case of `COc1cc2c(NC3CCN(CCCC(=O)NCCCCCCCCCCNC(=O)C[C@@H]4N=C(c5ccc(Cl)cc5)c5c(sc(C)c5C)-n5c(C)nnc54)CC3)cc(N3CCOCC3)nc2cc1OCCCN1CCCC1`, the Activity [1] is reported as “Dose-dependent-effect”, the DC50 [1] is reported as 6.2 µM and the Emax [2] is reported as 63%. It also gave an Activity [3] of 50%, a fold change (FC) [4] of 1.2 and a fold change (FC) [5] of 0.8. For the same compound, the fold change (FC) [6] was 0.4, the fold change (FC) [7] was 0.9 and the fold change (FC) [8] was 0.7. The fold change (FC) [9] was 1.1, the fold change (FC) [10] was 1.1 and the fold change (FC) [11] was 0.7. The fold change (FC) [12] was 0.1, the fold change (FC) [13] was 0.03 and the Activity [14] was “Active”. The Activity [15] was “Active”, the Activity [16] was “Active” and the inhibition [17] was “Active”. For the same compound, the Activity [18] was “Time-dependent-effect”, the Activity (HT-29 [19]) was “inactive” and the Activity (HT-29 [20]) was “inactive”. The Activity (HT-29 [21]) was “inactive”, the Activity [22] was “Active” and the Activity [23] was “inactive”. For the same compound, the Activity [24] was “inactive”, the Activity [25] was “inactive” and the GI50 (HT-29 [26]; HT-29, 72 h, time 3 day) was 4.5 µM. For the same compound, the Activity (HT-29 [26]; time 3.0 day) was “Dose-dependent-effect”.
